“Also recorded” adds a separate entry of the source.
What was measured:
[1] = tested on: HT-29 human colon cancer cells; test: HT-29 colon tumour xenograft in nude mice, combination with CPT-11 (1.2); assay type: in vivo, human cells in mice; conditions: SEQ ID NO:1 10 mg/kg i.v. every other day, CPT-11 20 mg/kg i.p. days 7-12
Excerpt: All treatments were stopped at day 22. […] All treatments were stopped at day 32. […] All treatments were stopped at day 36.

[2] = tested on: MDA-MB-231 human breast cancer cells; test: MDA-MB-231 breast tumour xenograft in CD-1 nude mice, combination with taxol or doxorubicin (1.7); assay type: in vivo, human cells in mice; conditions: doxorubicin 5 mg/kg i.v. weekly
Description: After 52 days the mice were sacrificed and the tumours weighed. […] Mitoxantrone was administered intravenously once at the beginning of the treatments at a dose of 2 mg/kg (FIG. 4A) or once a week for four weeks at a reduced dose of 0.8 mg/kg (FIG. 4B). All treatments were stopped at day 50 (FIG. 4A) or 48 (FIG. 4B), respectively. […] Mitoxantrone was administered intravenously once at the beginning of the treatments at a dose of 2 mg/kg (FIG. 5A) or once a week for four weeks at a reduced dose of 0.8 mg/kg (FIG. 5B). All treatments were stopped at day 42 (FIG. 5A) or 38 (FIG. 5B), respectively. […] A2058 is a metastatic melanoma cell line. […] All treatments were stopped at day 24. […] Taxol was administered intravenously once a week at a dose of 10 mg/kg for three (FIG. 7A) or four weeks (FIG. 7C). Doxorubicin was administered intravenously once a week at a dose of 5 mg/kg for first three weeks (FIG. 7A) or for two weeks (FIG. 7C). All treatments were stopped at day 33 (FIG. 7A) or at day 26 (FIG. 7C), respectively. […] In FIG. 7C, antitumour activities were estimated by the inhibition of tumour volume, which was measured with calipers. Each point represents mean tumour volume calculated from 10 animals per experimental group. […] Taxol was administered intravenously once a week for first three weeks and intraperitoneally once a week for next two weeks at a dose of 10 mg/kg. Cisplatin was administered intravenously once a week for first three weeks and intraperitoneally once a week for next two weeks at a dose of 4 mg/kg. All treatments were stopped at day 40. Antitumour activities were estimated by the inhibition of tumour volume, which was measured with caliper. Each point represents mean tumour volume calculated from 9 animals per experimental group.

[3] = tested on: R3 mouse fibrosarcoma cells; test: R3 mouse fibrosarcoma tumour growth in C3H mice; assay type: in vivo
Description: Treatments lasted for 14 days thereafter. Anti-tumour activities were estimated by the inhibition of tumour volume, which was measured with a calliper at two-day intervals starting from day 9. Each point in FIG. 27A represents the mean tumour volume calculated from 6-7 animals per experimental group. […] SEQ ID NO:1 had significant anti-tumour activity compared to saline (P=0.0006), scrambled (P=0.0001) and mismatched (0.0002) controls.
At the end of the treatments, the animals were sacrificed, tumours were excised and their weights were measured. Each bar in FIG. 27C represents mean tumour weight and standard error calculated from 6-8 animals per experimental group. P values compared to saline were as follows: 0.5 mg/kg (P=0.04), 2 mg/kg (P=0.0001), 5 mg/kg (P=0.0015), 10 mg/kg (P=0.0001), 30 mg/kg (P=0.0001).

5′-GGCTAAATCGCTCCACCAAG-3′ (all phosphorothioate, sugars by position and methylation of C not given here) [SEQ ID NO: 1, fully phosphorothioated antisense oligonucleotide that hybridizes to the coding region of R2 mRNA]
Tumour weight as % of saline control ([1]; HT-29 (colon), CD-1): 19%
Antitumour effect (tumour weight, FIG. 2) ([1]; HT-29, CD-1 nude mice): significant delay of tumour growth compared to saline control; also recorded: superior to the inhibitory effects observed with CPT-11 alone
Tumour weight as % of saline control ([2]; MDA-MB-231 (breast), CD-1, SEQ ID NO:1 10 mg/kg i.v. every other day, Taxol 10 mg/kg i.v. weekly): 12.6%
Antitumour effect (tumour weight / volume, FIG. 7) ([2]; MDA-MB-231, CD-1 nude mice, oligonucleotides 10 mg/kg i.v. every other day, taxol 10 mg/kg): delay of tumour growth compared to saline control in all three experiments; also recorded: superior to the inhibitory effects observed with taxol or doxorubicin alone
Inhibition of tumour weight ([3]; Mouse Fibrosarcoma): ~80%
Dose dependence of tumour weight ([3]; Mouse Fibrosarcoma in C3H mice at doses of 0.5 to 30 mg/kg): Dose-dependent decrease in tumour weight in
Inhibition of tumour volume ([3]; Mouse Fibrosarcoma in C3H mice, Day 15 after tumour implantation): approximately 80% on Day 15 after tumour laimpntation
Anti-tumour efficacy (tumour volume, FIG. 27A) ([3]; R3, C3H mice, 5 mg/kg i.v. every other day, 14 days): significant anti-tumour efficacy compared to saline, scrambled and mismatched controls
Dose dependence of anti-tumour activity (FIG. 27C) ([3]; R3, C3H mice, 0.5-30 mg/kg): dose-dependent anti-tumour activity

Source: patent US7968526B2, “Antisense oligonucleotides directed to ribonucleotide reductase R2 and uses thereof in the treatment of cancer” (Lorus Therapeutics Inc., priority 2003, dated 2011)
